Laboratory results published in patent US20130345418A1, “PROCESS FOR PURIFICATION OF APREPITANT” (HETERO DRUGS LIMITED, priority 2006, published 2013).
Read-outs that look alike come from different tables or passages of the source.

What was measured:
[1] = mean particle size of aprepitant; assay type: physicochemical; conditions: crystallized from ethyl acetate (Example 1)
[2] = aprepitant produced by the processes described in the prior art; cited from earlier work
[3] = dissolution rate of amorphous versus crystalline aprepitant; assay type: physicochemical; conditions: compared with the known crystalline aprepitant

Compound | mean particle size [1] | mean particle size [2] | dissolution rate [3]
C[C@@H](O[C@H]1OCCN(Cc2n[nH]c(=O)[nH]2)[C@H]1c1ccc(F)cc1)c1cc(C(F)(F)F)cc(C(F)(F)F)c1 [aprepitant, 5-[[(2R,3S)-2-[(1R)-1-[3,5-bis(trifluoromethyl)phenyl]ethoxy]-3-(4-fluorophenyl)-4-morpholinyl]methyl]-1,2-dihydro-3H-1,2,4-triazol-3-one] | 4.95 microns | about 12 microns | 
C[C@@H](O[C@H]1OCCN(Cc2n[nH]c(=O)[nH]2)[C@H]1c1ccc(F)cc1)c1cc(C(F)(F)F)cc(C(F)(F)F)c1 [amorphous aprepitant, 5-[[(2R,3S)-2-[(1R)-1-[3,5-bis(trifluoromethyl)phenyl]ethoxy]-3-(4-fluorophenyl)-4-morpholinyl]methyl]-1,2-dihydro-3H-1,2,4-triazol-3-one] |  |  | better dissolution rate than the known crystalline aprepitant
